According to ChEMBL document CHEMBL5576038, “Design of a novel long-acting dual GLP-1/GIP receptor agonist” (Bioorg Med Chem, 2024):
Where a SMILES comes first, the peptide text is derived from it. [ ]: non-standard residue; d: D form. The star is where a group is joined. X6 = N[C@@H](CCCCNC(=O)CC[C@H](NC(=O)CCCCCCCCCCCCCCCCC(=O)O)C(=O)O)C(=O)NCCCC[C@H](N)C(=O)N[C@@H](CCCCNC(=O)C*)C(=O)O; X5 = O=C(O)CCCCCCCCCCCCCCCCCCC(=O)N[C@@H](CCC(=O)NCCOCCOCC(=O)NCCOCCOCC(=O)N[C@@H](CCCCNC(=O)C*)C(=O)O)C(=O)O; X8 = O=C(O)CCCCCCCCCCCCCCCCC(=O)N[C@@H](CCC(=O)NCCOCCOCC(=O)NCCOCCOCC(=O)N[C@@H](CCCCNC(=O)C*)C(=O)O)C(=O)O; Aib = CC(C)(N)C(=O)O

Experiments:
[1] = target: T1, Gastric inhibitory polypeptide receptor (Homo sapiens, UniProt P48546); experiment: Agonist activity at human GIPR expressed in CHO cells assessed as increase in cAMP production incubated for 30 mins by Eu-cAMP tracer based microplate reader analysis; type: functional, cell-based
T1 sequence (P48546 whole entry): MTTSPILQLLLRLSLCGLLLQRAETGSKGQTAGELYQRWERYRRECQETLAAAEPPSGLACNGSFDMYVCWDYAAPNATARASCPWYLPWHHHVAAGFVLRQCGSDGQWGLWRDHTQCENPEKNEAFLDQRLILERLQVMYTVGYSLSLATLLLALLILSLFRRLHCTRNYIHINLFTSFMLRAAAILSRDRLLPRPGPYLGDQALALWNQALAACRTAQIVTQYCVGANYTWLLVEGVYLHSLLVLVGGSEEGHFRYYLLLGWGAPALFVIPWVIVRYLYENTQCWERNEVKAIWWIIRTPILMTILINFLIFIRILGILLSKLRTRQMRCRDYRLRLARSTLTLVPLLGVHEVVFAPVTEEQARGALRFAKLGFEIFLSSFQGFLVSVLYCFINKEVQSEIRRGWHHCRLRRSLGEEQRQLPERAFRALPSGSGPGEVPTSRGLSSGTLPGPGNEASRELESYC

[2] = target: Glucagon-like peptide 1 receptor (Homo sapiens, UniProt P43220); experiment: Agonist activity at human GLP-1R expressed in CHO cells assessed as increase in cAMP production incubated for 30 mins by Eu-cAMP tracer based microplate reader analysis; type: functional, cell-based
Chain of Glucagon-like peptide 1 receptor (P43220 whole entry): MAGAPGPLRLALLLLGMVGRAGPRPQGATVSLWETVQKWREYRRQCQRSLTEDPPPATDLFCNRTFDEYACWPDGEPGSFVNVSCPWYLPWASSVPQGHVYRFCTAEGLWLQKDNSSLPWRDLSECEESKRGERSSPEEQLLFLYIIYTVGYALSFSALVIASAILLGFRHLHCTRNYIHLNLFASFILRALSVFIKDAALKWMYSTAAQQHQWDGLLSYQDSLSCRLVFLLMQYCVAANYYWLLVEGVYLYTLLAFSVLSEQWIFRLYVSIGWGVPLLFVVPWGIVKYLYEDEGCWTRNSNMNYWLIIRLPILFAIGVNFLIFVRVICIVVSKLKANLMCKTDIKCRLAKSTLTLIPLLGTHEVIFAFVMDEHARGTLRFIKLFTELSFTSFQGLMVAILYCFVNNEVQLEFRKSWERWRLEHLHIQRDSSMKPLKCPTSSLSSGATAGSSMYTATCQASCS

| SMILES | EC50 [1] [nM] | EC50 [2] [nM] |
| --- | --- | --- |
| CC(C)C[C@H](NC(=O)[C@H](CC(C)C)NC(=O)[C@H](Cc1c[nH]c2ccccc12)NC(=O)[C@H](CCC(N)=O)NC(=O)[C@@H](NC(=O)[C@H](Cc1ccccc1)NC(=O)[C@H](CC(C)C)NC(=O)[C@H](CSCC(=O)NCCCC[C@H](NC(=O)[C@@H](N)CCCCNC(=O)[C@@H](N)CCCCNC(=O)CC[C@H](NC(=O)CCCCCCCCCCCCCCCCC(=O)O)C(=O)O)C(=O)O)NC(=O)[C@H](C)NC(=O)[C@H](C)NC(=O)[C@H](CCC(N)=O)NC(=O)[C@H](CCCCN)NC(=O)[C@H](CCC(=O)O)NC(=O)[C@H](CC(C)C)NC(=O)[C@H](Cc1ccc(O)cc1)NC(=O)[C@H](Cc1ccc(O)cc1)NC(=O)[C@H](CO)NC(=O)[C@H](Cc1ccc(O)cc1)NC(=O)[C@H](CC(=O)O)NC(=O)[C@H](CO)NC(=O)[C@@H](NC(=O)[C@H](Cc1ccccc1)NC(=O)[C@@H](NC(=O)CNC(=O)[C@H](CCC(=O)O)NC(=O)C(C)(C)NC(=O)[C@@H](N)Cc1ccc(O)cc1)[C@@H](C)O)[C@@H](C)O)C(C)C)C(=O)N[C@@H](C)C(=O)NCC(=O)NCC(=O)N1CCC[C@H]1C(=O)N[C@@H](CO)C(=O)N[C@@H](CO)C(=O)NCC(=O)N[C@@H](C)C(=O)N1CCC[C@H]1C(=O)N1CCC[C@H]1C(=O)N1CCC[C@H]1C(=O)N[C@@H](CO)C(N)=O (H-Y[Aib]EGTFTSDYSYYLEKQAAC(X6)LFVQWLLAGGPSSGAPPPS-NH2) | 19.2 | 1.26 |
| CC(C)C[C@H](NC(=O)[C@H](CC(C)C)NC(=O)[C@H](Cc1c[nH]c2ccccc12)NC(=O)[C@H](CCC(N)=O)NC(=O)[C@@H](NC(=O)[C@H](Cc1ccccc1)NC(=O)[C@H](CC(C)C)NC(=O)[C@H](CCCCN)NC(=O)[C@H](C)NC(=O)[C@H](C)NC(=O)[C@H](CCC(N)=O)NC(=O)[C@H](CCCCN)NC(=O)[C@H](CCC(=O)O)NC(=O)[C@H](CC(C)C)NC(=O)[C@H](CSCC(=O)NCCCC[C@H](NC(=O)COCCOCCNC(=O)COCCOCCNC(=O)CC[C@H](NC(=O)CCCCCCCCCCCCCCCCCCC(=O)O)C(=O)O)C(=O)O)NC(=O)[C@H](Cc1ccc(O)cc1)NC(=O)[C@H](CO)NC(=O)[C@H](Cc1ccc(O)cc1)NC(=O)[C@H](CC(=O)O)NC(=O)[C@H](CO)NC(=O)[C@@H](NC(=O)[C@H](Cc1ccccc1)NC(=O)[C@@H](NC(=O)CNC(=O)[C@H](CCC(=O)O)NC(=O)C(C)(C)NC(=O)[C@@H](N)Cc1ccc(O)cc1)[C@@H](C)O)[C@@H](C)O)C(C)C)C(=O)N[C@@H](C)C(=O)NCC(=O)NCC(=O)N1CCC[C@H]1C(=O)N[C@@H](CO)C(=O)N[C@@H](CO)C(=O)NCC(=O)N[C@@H](C)C(=O)N1CCC[C@H]1C(=O)N1CCC[C@H]1C(=O)N1CCC[C@H]1C(=O)N[C@@H](CO)C(N)=O (H-Y[Aib]EGTFTSDYSYC(X5)LEKQAAKLFVQWLLAGGPSSGAPPPS-NH2) | 0.42 | 1.34 |
| CC(C)C[C@H](NC(=O)[C@H](CC(C)C)NC(=O)[C@H](Cc1c[nH]c2ccccc12)NC(=O)[C@H](CS)NC(=O)[C@@H](NC(=O)[C@H](Cc1ccccc1)NC(=O)[C@H](CC(C)C)NC(=O)[C@H](CCCCN)NC(=O)[C@H](C)NC(=O)[C@H](C)NC(=O)[C@H](CCC(N)=O)NC(=O)[C@H](CCCCN)NC(=O)[C@H](CCC(=O)O)NC(=O)[C@H](CC(C)C)NC(=O)[C@H](Cc1ccc(O)cc1)NC(=O)[C@H](Cc1ccc(O)cc1)NC(=O)[C@H](CO)NC(=O)[C@H](Cc1ccc(O)cc1)NC(=O)[C@H](CC(=O)O)NC(=O)[C@H](CO)NC(=O)[C@@H](NC(=O)[C@H](Cc1ccccc1)NC(=O)[C@@H](NC(=O)CNC(=O)[C@H](CCC(=O)O)NC(=O)C(C)(C)NC(=O)[C@@H](N)Cc1ccc(O)cc1)[C@@H](C)O)[C@@H](C)O)C(C)C)C(=O)N[C@@H](C)C(=O)NCC(=O)NCC(=O)N1CCC[C@H]1C(=O)N[C@@H](CO)C(=O)N[C@@H](CO)C(=O)NCC(=O)N[C@@H](C)C(=O)N1CCC[C@H]1C(=O)N1CCC[C@H]1C(=O)N1CCC[C@H]1C(=O)N[C@@H](CO)C(N)=O (H-Y[Aib]EGTFTSDYSYYLEKQAAKLFVCWLLAGGPSSGAPPPS-NH2) | 2.57 | 0.57 |
| CC(C)C[C@H](NC(=O)[C@H](CC(C)C)NC(=O)[C@H](Cc1c[nH]c2ccccc12)NC(=O)[C@H](CCC(N)=O)NC(=O)[C@@H](NC(=O)[C@H](Cc1ccccc1)NC(=O)[C@H](CC(C)C)NC(=O)[C@H](CCCCN)NC(=O)[C@H](C)NC(=O)[C@H](C)NC(=O)[C@H](CCC(N)=O)NC(=O)[C@H](CCCCN)NC(=O)[C@H](CCC(=O)O)NC(=O)[C@H](CC(C)C)NC(=O)[C@H](CSCC(=O)NCCCC[C@H](NC(=O)COCCOCCNC(=O)COCCOCCNC(=O)CC[C@H](NC(=O)CCCCCCCCCCCCCCCCC(=O)O)C(=O)O)C(=O)O)NC(=O)[C@H](Cc1ccc(O)cc1)NC(=O)[C@H](CO)NC(=O)[C@H](Cc1ccc(O)cc1)NC(=O)[C@H](CC(=O)O)NC(=O)[C@H](CO)NC(=O)[C@@H](NC(=O)[C@H](Cc1ccccc1)NC(=O)[C@@H](NC(=O)CNC(=O)[C@H](CCC(=O)O)NC(=O)C(C)(C)NC(=O)[C@@H](N)Cc1ccc(O)cc1)[C@@H](C)O)[C@@H](C)O)C(C)C)C(=O)N[C@@H](C)C(=O)NCC(=O)NCC(=O)N1CCC[C@H]1C(=O)N[C@@H](CO)C(=O)N[C@@H](CO)C(=O)NCC(=O)N[C@@H](C)C(=O)N1CCC[C@H]1C(=O)N1CCC[C@H]1C(=O)N1CCC[C@H]1C(=O)N[C@@H](CO)C(N)=O (H-Y[Aib]EGTFTSDYSYC(X8)LEKQAAKLFVQWLLAGGPSSGAPPPS-NH2) | 1.31 | 1.75 |
| CC(C)C[C@H](NC(=O)[C@H](CC(C)C)NC(=O)[C@H](Cc1c[nH]c2ccccc12)NC(=O)[C@H](CSCC(=O)NCCCC[C@H](NC(=O)COCCOCCNC(=O)COCCOCCNC(=O)CC[C@H](NC(=O)CCCCCCCCCCCCCCCCCCC(=O)O)C(=O)O)C(=O)O)NC(=O)[C@@H](NC(=O)[C@H](Cc1ccccc1)NC(=O)[C@H](CC(C)C)NC(=O)[C@H](CCCCN)NC(=O)[C@H](C)NC(=O)[C@H](C)NC(=O)[C@H](CCC(N)=O)NC(=O)[C@H](CCCCN)NC(=O)[C@H](CCC(=O)O)NC(=O)[C@H](CC(C)C)NC(=O)[C@H](Cc1ccc(O)cc1)NC(=O)[C@H](Cc1ccc(O)cc1)NC(=O)[C@H](CO)NC(=O)[C@H](Cc1ccc(O)cc1)NC(=O)[C@H](CC(=O)O)NC(=O)[C@H](CO)NC(=O)[C@@H](NC(=O)[C@H](Cc1ccccc1)NC(=O)[C@@H](NC(=O)CNC(=O)[C@H](CCC(=O)O)NC(=O)C(C)(C)NC(=O)[C@@H](N)Cc1ccc(O)cc1)[C@@H](C)O)[C@@H](C)O)C(C)C)C(=O)N[C@@H](C)C(=O)NCC(=O)NCC(=O)N1CCC[C@H]1C(=O)N[C@@H](CO)C(=O)N[C@@H](CO)C(=O)NCC(=O)N[C@@H](C)C(=O)N1CCC[C@H]1C(=O)N1CCC[C@H]1C(=O)N1CCC[C@H]1C(=O)N[C@@H](CO)C(N)=O (H-Y[Aib]EGTFTSDYSYYLEKQAAKLFVC(X5)WLLAGGPSSGAPPPS-NH2) | 3.73 | 0.89 |
| CC(C)C[C@H](NC(=O)[C@H](CCCCN)NC(=O)[C@H](C)NC(=O)[C@H](C)NC(=O)[C@H](CCC(N)=O)NC(=O)[C@H](CCCCN)NC(=O)[C@H](CCC(=O)O)NC(=O)[C@H](CC(C)C)NC(=O)[C@H](Cc1ccc(O)cc1)NC(=O)[C@H](Cc1ccc(O)cc1)NC(=O)[C@H](CO)NC(=O)[C@H](Cc1ccc(O)cc1)NC(=O)[C@H](CC(=O)O)NC(=O)[C@H](CO)NC(=O)[C@@H](NC(=O)[C@H](Cc1ccccc1)NC(=O)[C@@H](NC(=O)CNC(=O)[C@H](CCC(=O)O)NC(=O)C(C)(C)NC(=O)[C@@H](N)Cc1ccc(O)cc1)[C@@H](C)O)[C@@H](C)O)C(=O)N[C@@H](Cc1ccccc1)C(=O)N[C@H](C(=O)N[C@@H](CCC(N)=O)C(=O)N[C@@H](Cc1c[nH]c2ccccc12)C(=O)N[C@@H](CC(C)C)C(=O)N[C@@H](CS)C(=O)N[C@@H](C)C(=O)NCC(=O)NCC(=O)N1CCC[C@H]1C(=O)N[C@@H](CO)C(=O)N[C@@H](CO)C(=O)NCC(=O)N[C@@H](C)C(=O)N1CCC[C@H]1C(=O)N1CCC[C@H]1C(=O)N1CCC[C@H]1C(=O)N[C@@H](CO)C(N)=O)C(C)C (H-Y[Aib]EGTFTSDYSYYLEKQAAKLFVQWLCAGGPSSGAPPPS-NH2) | 2.33 | 2.83 |
| CC(C)C[C@H](NC(=O)[C@H](CC(C)C)NC(=O)[C@H](Cc1c[nH]c2ccccc12)NC(=O)[C@H](CCC(N)=O)NC(=O)[C@@H](NC(=O)[C@H](Cc1ccccc1)NC(=O)[C@H](CC(C)C)NC(=O)[C@H](CCCCN)NC(=O)[C@H](C)NC(=O)[C@H](C)NC(=O)[C@H](CCC(N)=O)NC(=O)[C@H](CCCCN)NC(=O)[C@H](CCC(=O)O)NC(=O)[C@H](CC(C)C)NC(=O)[C@H](CS)NC(=O)[C@H](Cc1ccc(O)cc1)NC(=O)[C@H](CO)NC(=O)[C@H](Cc1ccc(O)cc1)NC(=O)[C@H](CC(=O)O)NC(=O)[C@H](CO)NC(=O)[C@@H](NC(=O)[C@H](Cc1ccccc1)NC(=O)[C@@H](NC(=O)CNC(=O)[C@H](CCC(=O)O)NC(=O)C(C)(C)NC(=O)[C@@H](N)Cc1ccc(O)cc1)[C@@H](C)O)[C@@H](C)O)C(C)C)C(=O)N[C@@H](C)C(=O)NCC(=O)NCC(=O)N1CCC[C@H]1C(=O)N[C@@H](CO)C(=O)N[C@@H](CO)C(=O)NCC(=O)N[C@@H](C)C(=O)N1CCC[C@H]1C(=O)N1CCC[C@H]1C(=O)N1CCC[C@H]1C(=O)N[C@@H](CO)C(N)=O (H-Y[Aib]EGTFTSDYSYCLEKQAAKLFVQWLLAGGPSSGAPPPS-NH2) | 0.39 | 0.42 |
